Measured values as given in US10730890B2, “Phthalocyanine derivative consisting of a mixture of 4 isomers” (MOLTENI THERAPEUTICS S.R.L., priority 2009, dated 2020).

What was measured:
[1] = solubilisation of intermediate (II) in DMF and THF/MeOH 1/1, HPLC analysis of the solutions; format: physicochemical; conditions: 2 mg/ml, isomer B precipitates
Method: Experimental Proof of the Difficulty of Preparing Solutions of (II), Due to the Low Solubility of the Isomer B.
Two samples of the same batch of intermediate (II) are solubilised (2 mg/ml) in, DMF and THF/MeOH 1/1. The solutions are appropriately diluted and analysed in HPLC. […] This behaviour can lead to the preparation of samples having variable composition and, ultimately, to the production of not reliable analytical data including the ones concerning the other isomers

[2] = pharmacological and toxicological activity of product (I) compared with compounds (V) and (VI); conditions: new isomers distribution (low isomer B content) with respect to compounds (V) and (VI)

Substance | solubility of the isomer B in comparison to the other isomers [1] | difference in terms of pharmacological and toxicological activity [2]
[1,8(11),15(18),22(25)-tetrakis-(3-N,N-dimethylamino phenoxy)] Zinc Phthalocyaninate [isomer B] | lower solubility | –
[1.8(11),15(18),22(25)-tetrakis-(3-N,N,N-trimethylammonium phenoxy)] Zinc Phthalocyaninate Tetrachloride “With Low Isomer B Content” [(I)] | – | does not imply any difference
